# Experimental data as given in patent US20090012103A1, “SUBSTITUTED HETEROCYCLIC COMPOUNDS” (priority 2007, published 2009).
# Molecular target: wild-type human cardiac sodium channel, hNav1.5 (Homo sapiens, UniProt Q14524)
# Experiment: Late INa screening assay (late sodium current, PatchXpress whole cell patch clamp)
# Format: cell-based
# Conditions: compound at 10 μM; read-out: Late INa % blk
# Chain of wild-type human cardiac sodium channel, hNav1.5 (Q14524 whole entry): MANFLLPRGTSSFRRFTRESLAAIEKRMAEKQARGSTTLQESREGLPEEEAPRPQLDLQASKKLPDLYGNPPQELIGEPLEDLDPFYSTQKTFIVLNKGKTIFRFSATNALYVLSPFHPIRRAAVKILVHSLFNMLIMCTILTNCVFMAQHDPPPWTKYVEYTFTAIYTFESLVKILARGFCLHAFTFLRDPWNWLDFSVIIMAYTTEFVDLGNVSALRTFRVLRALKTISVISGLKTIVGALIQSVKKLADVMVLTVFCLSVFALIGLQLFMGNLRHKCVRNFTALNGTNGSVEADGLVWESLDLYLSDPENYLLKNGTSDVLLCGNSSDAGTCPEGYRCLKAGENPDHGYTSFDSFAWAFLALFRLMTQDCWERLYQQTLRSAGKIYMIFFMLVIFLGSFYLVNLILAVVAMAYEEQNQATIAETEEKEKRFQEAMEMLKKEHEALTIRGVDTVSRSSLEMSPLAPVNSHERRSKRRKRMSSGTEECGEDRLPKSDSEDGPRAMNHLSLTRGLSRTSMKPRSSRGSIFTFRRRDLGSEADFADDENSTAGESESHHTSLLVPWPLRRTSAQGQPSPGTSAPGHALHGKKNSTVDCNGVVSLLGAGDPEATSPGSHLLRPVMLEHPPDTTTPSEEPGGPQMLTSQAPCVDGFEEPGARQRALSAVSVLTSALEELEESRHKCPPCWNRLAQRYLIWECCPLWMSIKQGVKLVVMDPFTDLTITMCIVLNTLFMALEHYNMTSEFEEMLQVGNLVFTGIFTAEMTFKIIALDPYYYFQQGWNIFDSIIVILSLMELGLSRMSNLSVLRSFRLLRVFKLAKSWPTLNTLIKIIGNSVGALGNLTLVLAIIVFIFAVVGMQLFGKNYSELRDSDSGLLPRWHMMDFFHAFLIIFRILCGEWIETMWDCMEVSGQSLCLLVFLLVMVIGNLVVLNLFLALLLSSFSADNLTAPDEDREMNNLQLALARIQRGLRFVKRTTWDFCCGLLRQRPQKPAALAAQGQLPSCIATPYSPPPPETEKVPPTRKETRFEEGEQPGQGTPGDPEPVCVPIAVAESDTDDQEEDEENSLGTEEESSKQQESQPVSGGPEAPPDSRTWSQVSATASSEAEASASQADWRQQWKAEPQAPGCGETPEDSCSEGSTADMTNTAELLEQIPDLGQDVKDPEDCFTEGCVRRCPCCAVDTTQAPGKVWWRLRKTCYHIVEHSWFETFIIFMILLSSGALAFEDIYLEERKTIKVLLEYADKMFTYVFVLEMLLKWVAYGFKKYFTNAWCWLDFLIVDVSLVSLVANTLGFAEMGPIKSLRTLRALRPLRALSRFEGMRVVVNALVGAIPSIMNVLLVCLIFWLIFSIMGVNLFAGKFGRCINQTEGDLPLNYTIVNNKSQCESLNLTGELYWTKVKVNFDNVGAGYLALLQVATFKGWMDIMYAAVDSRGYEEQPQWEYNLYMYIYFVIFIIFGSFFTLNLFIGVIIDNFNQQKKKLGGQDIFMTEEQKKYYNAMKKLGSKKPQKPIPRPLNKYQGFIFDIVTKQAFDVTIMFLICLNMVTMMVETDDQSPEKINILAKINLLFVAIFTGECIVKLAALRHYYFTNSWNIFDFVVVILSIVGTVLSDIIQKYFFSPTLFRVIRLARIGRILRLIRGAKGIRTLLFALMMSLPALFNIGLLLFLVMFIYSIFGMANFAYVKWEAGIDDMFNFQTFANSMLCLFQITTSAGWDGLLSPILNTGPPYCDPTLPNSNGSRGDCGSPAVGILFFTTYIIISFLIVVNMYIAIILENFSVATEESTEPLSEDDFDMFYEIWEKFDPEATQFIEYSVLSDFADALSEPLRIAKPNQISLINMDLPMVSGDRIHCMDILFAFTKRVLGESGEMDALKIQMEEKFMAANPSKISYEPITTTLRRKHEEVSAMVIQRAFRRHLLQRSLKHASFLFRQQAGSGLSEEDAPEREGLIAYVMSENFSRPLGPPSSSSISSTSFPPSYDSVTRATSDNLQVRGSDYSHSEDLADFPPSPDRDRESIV
row,SMILES,inhibition at 10 µM [%]
1,"CC1=C(C(=O)OCc2ccccc2)C(c2ccc(Br)cc2F)n2nnnc2N1 (stereo not drawn) [PT-416, benzyl 7-(4-bromo-2-fluorophenyl)-5-methyl-4,7-dihydrotetrazolo[1,5-a]pyrimidine-6-carboxylate]",25.6
2,"COc1cc(C#N)ccc1C1C(C(=O)OCc2ccccc2)=C(C)Nc2nnnn21 (stereo not drawn) [PT-417, benzyl 7-(4-cyano-2-methoxyphenyl)-5-methyl-4,7-dihydrotetrazolo[1,5-a]pyrimidine-6-carboxylate]",41.3
3,"CC1=C(C(=O)OCc2ccccc2)C(c2ccc(C#N)cc2)n2nnnc2N1 (stereo not drawn) [PT-418, benzyl 7-(4-cyanophenyl)-5-methyl-4,7-dihydrotetrazolo[1,5-a]pyrimidine-6-carboxylate]",42.7
4,"COc1ccc(C2C(C(=O)OCc3ccccc3)=C(C)Nc3nnnn32)c([N+](=O)[O-])c1 (stereo not drawn) [PT-419, benzyl 7-(4-methoxy-2-nitrophenyl)-5-methyl-4,7-dihydrotetrazolo[1,5-a]pyrimidine-6-carboxylate]",44.2
5,"COc1ccc(-c2ccccc2C2C(C(=O)OCc3ccccc3)=C(C)Nc3nnnn32)cc1 (stereo not drawn) [PT-420, benzyl 7-(4′-methoxybiphenyl-2-yl)-5-methyl-4,7-dihydrotetrazolo[1,5-a]pyrimidine-6-carboxylate]",75.3
6,"COc1ccc(C2C(C(=O)OCc3ccccc3)=C(C)Nc3nnnn32)c2ccccc12 (stereo not drawn) [PT-421, benzyl 7-(4-methoxynaphthalen-1-yl)-5-methyl-4,7-dihydrotetrazolo[1,5-a]pyrimidine-6-carboxylate]",23.5
7,"CCn1c2ccccc2c2cc(C3C(C(=O)OCc4ccccc4)=C(C)Nc4nnnn43)ccc21 (stereo not drawn) [PT-422, benzyl 7-(9-ethyl-9H-carbazol-3-yl)-5-methyl-4,7-dihydrotetrazolo[1,5-a]pyrimidine-6-carboxylate]",35.2
8,"CCOC(=O)C1=C(C)NC(C)=C(C(=O)OCC)C1c1ccc(OC)cc1OC [PT-429, diethyl 4-(2,4-dimethoxyphenyl)-2,6-dimethyl-1,4-dihydropyridine-3,5-dicarboxylate]",14.9
9,"CCOC(=O)C1=C(C)NC(C)=C(C(=O)OCC)C1c1ccc(OC)cc1C#N [PT-431, diethyl 4-(2-cyano-4-methoxyphenyl)-2,6-dimethyl-1,4-dihydropyridine-3,5-dicarboxylate]",56.1
10,"CCOC(=O)C1=C(C)NC(C)=C(C(=O)OCC)C1c1ccc(OC)cc1F [PT-432, diethyl 4-(2-fluoro-4-methoxyphenyl)-2,6-dimethyl-1,4-dihydropyridine-3,5-dicarboxylate]",56.9
11,"CCOC(=O)C1=C(C)NC(C)=C(C(=O)OCC)C1c1ccc([N+](=O)[O-])cc1OC [PT-433, diethyl 4-(2-methoxy-4-nitrophenyl)-2,6-dimethyl-1,4-dihydropyridine-3,5-dicarboxylate]",30.3
12,"CCOC(=O)C1=C(C)NC(C)=C(C(=O)OCC)C1c1ccccc1-c1cccc(C#N)c1 [PT-435, diethyl 4-(3′-cyanobiphenyl-2-yl)-2,6-dimethyl-1,4-dihydropyridine-3,5-dicarboxylate]",19.4
13,"CCOC(=O)C1=C(C)NC(C)=C(C(=O)OCC)C1c1ccc(N(C)C)cc1OC [PT-436, diethyl 4-(4-(dimethylamino)-2-methoxyphenyl)-2,6-dimethyl-1,4-dihydropyridine-3,5-dicarboxylate]",18.7
14,"CCOC(=O)C1=C(C)NC(C)=C(C(=O)OCC)C1c1ccc(N(C)C)cc1[N+](=O)[O-] [PT-437, diethyl 4-(4-(dimethylamino)-2-nitrophenyl)-2,6-dimethyl-1,4-dihydropyridine-3,5-dicarboxylate]",43.1
15,"CCOC(=O)C1=C(C)NC(C)=C(C(=O)OCC)C1c1ccccc1-c1ccccc1 [PT-438, diethyl 4-(biphenyl-2-yl)-2,6-dimethyl-1,4-dihydropyridine-3,5-dicarboxylate]",20.9
